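Growth conditions: 96-well plates. Treatment: test compound, 48 hours, 5 concentrations. Analysis: linear interpolation between bracketing concentrations; unreached endpoints set to highest concentration. GI50 = concentration required for 50% inhibition of growth. At the TGI there is no net growth.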
Key:
Experiment in all cases: growth of human tumour cells (NCI), 48 h
A549 NSCLC = test system: A549 NSCLC
SW-620 colon = test system: SW-620 colon
NCI-H226 lung = test system: NCI-H226 lung
HCC-2998 colon = test system: HCC-2998 colon
MDA-MB-231 breast = test system: MDA-MB-231 breast
SK-MEL-2 melanoma = test system: SK-MEL-2 melanoma
CAKI-1 renal = test system: CAKI-1 renal
HT29 colon = test system: HT29 colon
SK-OV-3 ovarian = test system: SK-OV-3 ovarian
OVCAR-5 ovarian = test system: OVCAR-5 ovarian
SF-295 CNS = test system: SF-295 CNS
SR leukemia = test system: SR leukemia
SK-MEL-28 melanoma = test system: SK-MEL-28 melanoma
SNB-19 CNS = test system: SNB-19 CNS
TK-10 renal = test system: TK-10 renal
UACC-257 melanoma = test system: UACC-257 melanoma
K-562 leukemia = test system: K-562 leukemia
M14 melanoma = test system: M14 melanoma
SK-MEL-5 melanoma = test system: SK-MEL-5 melanoma
A498 renal = test system: A498 renal
SF-539 CNS = test system: SF-539 CNS
U251 CNS = test system: U251 CNS
OVCAR-8 ovarian = test system: OVCAR-8 ovarian
MDA-MB-435 = test system: MDA-MB-435
MALME-3M melanoma = test system: MALME-3M melanoma
RXF 393 renal = test system: RXF 393 renal
NCI-H460 lung = test system: NCI-H460 lung
PC-3 prostate = test system: PC-3 prostate
HS 578T breast = test system: HS 578T breast
HL-60(TB) leukemia = test system: HL-60(TB) leukemia
HOP-92 NSCLC = test system: HOP-92 NSCLC
ACHN renal = test system: ACHN renal
DU-145 prostate = test system: DU-145 prostate
BT-549 breast = test system: BT-549 breast
MOLT-4 leukemia = test system: MOLT-4 leukemia
RPMI-8226 leukemia = test system: RPMI-8226 leukemia
NCI-H522 lung = test system: NCI-H522 lung
KM12 colon = test system: KM12 colon
IGROV1 ovarian = test system: IGROV1 ovarian
NCI/ADR-RES ovarian = test system: NCI/ADR-RES ovarian
CCRF-CEM leukemia = test system: CCRF-CEM leukemia
SNB-75 CNS = test system: SNB-75 CNS
SF-268 CNS = test system: SF-268 CNS
MCF7 breast = test system: MCF7 breast
SN12C renal = test system: SN12C renal
786-0 renal = test system: 786-0 renal
OVCAR-3 ovarian = test system: OVCAR-3 ovarian
HOP-62 NSCLC = test system: HOP-62 NSCLC
LOX IMVI melanoma = test system: LOX IMVI melanoma
COLO 205 colon = test system: COLO 205 colon
HCT-116 colon = test system: HCT-116 colon
HCT-15 colon = test system: HCT-15 colon
T-47D breast = test system: T-47D breast
UACC-62 melanoma = test system: UACC-62 melanoma
NCI-H23 lung = test system: NCI-H23 lung
UO-31 renal = test system: UO-31 renal
OVCAR-4 ovarian = test system: OVCAR-4 ovarian
EKVX NSCLC = test system: EKVX NSCLC

Q: Cc1cc(-c2ccc(C3C(C#N)=C(N)Oc4c3c(=O)oc3ccccc43)cc2)cnc1F (stereo unspecified) was tested. Which GI50 (A549 NSCLC) did it give?
A: > 100 µM

Q: What about the TGI (A549 NSCLC) of the same compound?
A: > 100 µM

Q: And the GI50 (SW-620 colon)?
A: 85.3 µM

Q: And the TGI (SW-620 colon)?
A: > 100 µM

Q: And the GI50 (NCI-H226 lung)?
A: 34.2 µM

Q: And the TGI (NCI-H226 lung)?
A: > 100 µM

Q: And the GI50 (HCC-2998 colon)?
A: 89 µM

Q: And the TGI (HCC-2998 colon)?
A: > 100 µM

Q: What about the GI50 (MDA-MB-231 breast) of the same compound?
A: > 100 µM

Q: And the TGI (MDA-MB-231 breast)?
A: > 100 µM

Q: What about the GI50 (SK-MEL-2 melanoma) of the same compound?
A: 35.3 µM

Q: What about the TGI (SK-MEL-2 melanoma) of the same compound?
A: > 100 µM

Q: And the GI50 (CAKI-1 renal)?
A: 41 µM

Q: And the TGI (CAKI-1 renal)?
A: > 100 µM

Q: And the GI50 (HT29 colon)?
A: 43.4 µM

Q: And the TGI (HT29 colon)?
A: > 100 µM

Q: And the GI50 (SK-OV-3 ovarian)?
A: 59.8 µM

Q: And the TGI (SK-OV-3 ovarian)?
A: > 100 µM

Q: What about the GI50 (OVCAR-5 ovarian) of the same compound?
A: 85.9 µM

Q: And the TGI (OVCAR-5 ovarian)?
A: > 100 µM

Q: And the GI50 (SF-295 CNS)?
A: 88 µM

Q: What about the TGI (SF-295 CNS) of the same compound?
A: > 100 µM

Q: And the GI50 (SR leukemia)?
A: 33.6 µM

Q: What about the TGI (SR leukemia) of the same compound?
A: > 100 µM

Q: What about the GI50 (SK-MEL-28 melanoma) of the same compound?
A: > 100 µM

Q: And the TGI (SK-MEL-28 melanoma)?
A: > 100 µM

Q: What about the GI50 (SNB-19 CNS) of the same compound?
A: > 100 µM

Q: What about the TGI (SNB-19 CNS) of the same compound?
A: > 100 µM

Q: What about the GI50 (TK-10 renal) of the same compound?
A: 39.3 µM

Q: And the TGI (TK-10 renal)?
A: > 100 µM

Q: What about the GI50 (UACC-257 melanoma) of the same compound?
A: > 100 µM

Q: And the TGI (UACC-257 melanoma)?
A: > 100 µM

Q: And the GI50 (K-562 leukemia)?
A: 35 µM

Q: And the TGI (K-562 leukemia)?
A: > 100 µM

Q: And the GI50 (M14 melanoma)?
A: > 100 µM

Q: And the TGI (M14 melanoma)?
A: > 100 µM

Q: And the GI50 (SK-MEL-5 melanoma)?
A: 81 µM

Q: And the TGI (SK-MEL-5 melanoma)?
A: > 100 µM

Q: And the GI50 (A498 renal)?
A: > 100 µM

Q: What about the TGI (A498 renal) of the same compound?
A: > 100 µM

Q: And the GI50 (SF-539 CNS)?
A: 46 µM

Q: And the TGI (SF-539 CNS)?
A: > 100 µM

Q: And the GI50 (U251 CNS)?
A: > 100 µM

Q: What about the TGI (U251 CNS) of the same compound?
A: > 100 µM

Q: And the GI50 (OVCAR-8 ovarian)?
A: > 100 µM

Q: And the TGI (OVCAR-8 ovarian)?
A: > 100 µM

Q: And the GI50 (MDA-MB-435)?
A: > 100 µM

Q: What about the TGI (MDA-MB-435) of the same compound?
A: > 100 µM

Q: What about the GI50 (MALME-3M melanoma) of the same compound?
A: > 100 µM

Q: What about the TGI (MALME-3M melanoma) of the same compound?
A: > 100 µM

Q: What about the GI50 (RXF 393 renal) of the same compound?
A: 12.8 µM

Q: And the TGI (RXF 393 renal)?
A: 77.3 µM

Q: What about the GI50 (NCI-H460 lung) of the same compound?
A: > 100 µM

Q: And the TGI (NCI-H460 lung)?
A: > 100 µM

Q: What about the GI50 (PC-3 prostate) of the same compound?
A: 40.2 µM

Q: And the TGI (PC-3 prostate)?
A: > 100 µM

Q: What about the GI50 (HS 578T breast) of the same compound?
A: 67.8 µM

Q: What about the TGI (HS 578T breast) of the same compound?
A: > 100 µM

Q: And the GI50 (HL-60(TB) leukemia)?
A: 43.4 µM

Q: What about the TGI (HL-60(TB) leukemia) of the same compound?
A: > 100 µM

Q: And the GI50 (HOP-92 NSCLC)?
A: 1.63 µM

Q: What about the TGI (HOP-92 NSCLC) of the same compound?
A: 74.1 µM

Q: And the GI50 (ACHN renal)?
A: 55.9 µM

Q: What about the TGI (ACHN renal) of the same compound?
A: > 100 µM

Q: And the GI50 (DU-145 prostate)?
A: 49 µM

Q: And the TGI (DU-145 prostate)?
A: > 100 µM

Q: What about the GI50 (BT-549 breast) of the same compound?
A: 23.9 µM

Q: And the TGI (BT-549 breast)?
A: > 100 µM

Q: And the GI50 (MOLT-4 leukemia)?
A: 27.8 µM

Q: What about the TGI (MOLT-4 leukemia) of the same compound?
A: > 100 µM

Q: And the GI50 (RPMI-8226 leukemia)?
A: 38.4 µM

Q: And the TGI (RPMI-8226 leukemia)?
A: > 100 µM

Q: What about the GI50 (NCI-H522 lung) of the same compound?
A: 22.5 µM

Q: And the TGI (NCI-H522 lung)?
A: > 100 µM

Q: What about the GI50 (KM12 colon) of the same compound?
A: > 100 µM

Q: And the TGI (KM12 colon)?
A: > 100 µM

Q: What about the GI50 (IGROV1 ovarian) of the same compound?
A: > 100 µM

Q: And the TGI (IGROV1 ovarian)?
A: > 100 µM

Q: And the GI50 (NCI/ADR-RES ovarian)?
A: 68.7 µM

Q: And the TGI (NCI/ADR-RES ovarian)?
A: > 100 µM

Q: And the GI50 (CCRF-CEM leukemia)?
A: 0.535 µM

Q: What about the TGI (CCRF-CEM leukemia) of the same compound?
A: > 100 µM

Q: What about the GI50 (SNB-75 CNS) of the same compound?
A: 22.4 µM

Q: What about the TGI (SNB-75 CNS) of the same compound?
A: > 100 µM

Q: What about the GI50 (SF-268 CNS) of the same compound?
A: 64.9 µM

Q: And the TGI (SF-268 CNS)?
A: > 100 µM

Q: What about the GI50 (MCF7 breast) of the same compound?
A: 48.9 µM

Q: What about the TGI (MCF7 breast) of the same compound?
A: > 100 µM

Q: And the GI50 (SN12C renal)?
A: 81.2 µM

Q: And the TGI (SN12C renal)?
A: > 100 µM

Q: And the GI50 (786-0 renal)?
A: 50.8 µM

Q: What about the TGI (786-0 renal) of the same compound?
A: > 100 µM

Q: What about the GI50 (OVCAR-3 ovarian) of the same compound?
A: 33.9 µM

Q: What about the TGI (OVCAR-3 ovarian) of the same compound?
A: > 100 µM

Q: And the GI50 (HOP-62 NSCLC)?
A: 88.5 µM

Q: What about the TGI (HOP-62 NSCLC) of the same compound?
A: > 100 µM

Q: What about the GI50 (LOX IMVI melanoma) of the same compound?
A: 44.4 µM

Q: What about the TGI (LOX IMVI melanoma) of the same compound?
A: > 100 µM

Q: What about the GI50 (COLO 205 colon) of the same compound?
A: > 100 µM

Q: What about the TGI (COLO 205 colon) of the same compound?
A: > 100 µM

Q: What about the GI50 (HCT-116 colon) of the same compound?
A: 29.4 µM

Q: And the TGI (HCT-116 colon)?
A: > 100 µM

Q: And the GI50 (HCT-15 colon)?
A: 42.3 µM

Q: What about the TGI (HCT-15 colon) of the same compound?
A: > 100 µM

Q: And the GI50 (T-47D breast)?
A: 29.5 µM

Q: What about the TGI (T-47D breast) of the same compound?
A: > 100 µM

Q: What about the GI50 (UACC-62 melanoma) of the same compound?
A: 43.8 µM

Q: And the TGI (UACC-62 melanoma)?
A: > 100 µM

Q: And the GI50 (NCI-H23 lung)?
A: 38.7 µM

Q: And the TGI (NCI-H23 lung)?
A: > 100 µM

Q: What about the GI50 (UO-31 renal) of the same compound?
A: 26.9 µM

Q: What about the TGI (UO-31 renal) of the same compound?
A: > 100 µM

Q: What about the GI50 (OVCAR-4 ovarian) of the same compound?
A: 39.3 µM

Q: What about the TGI (OVCAR-4 ovarian) of the same compound?
A: > 100 µM

Q: And the GI50 (EKVX NSCLC)?
A: 71.3 µM

Q: And the TGI (EKVX NSCLC)?
A: > 100 µM
